These results are taken from PubChem BioAssay (NCI).

Some test systems named below: K-562 leukemia; ACHN renal; CCRF-CEM leukemia; HCT-116 colon; SW-620 colon; EKVX NSCLC; MDA-N; A549 NSCLC; NCI-H460 lung; SNB-19 CNS.
Test in all cases: growth of human tumour cells (NCI), 48 h

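Results reflect a 48-hour exposure of cells in 96-well plates to compound at five concentrations. Definition used: TGI = concentration required for complete inhibition of growth.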

`O=C(O)/C=C(/CC(=O)O)C(=O)O`: the TGI in the test with K-562 leukemia worked out at 42.6 µM; with ACHN renal, 33.3 µM; in the test with CCRF-CEM leukemia, 37.2 µM; in the test on HCT-116 colon, 35.6 µM; with SW-620 colon, 39.8 µM; with EKVX NSCLC it was 51.7 µM. The TGI is 54.6 µM with MDA-N, 43.2 µM in the test on A549 NSCLC, greater than 100 µM in the test on NCI-H460 lung and 62.3 µM in the test on SNB-19 CNS.
For `CCOC(=O)c1ccc(C(=O)C(C(C)=O)C(=O)OC(C)(C)C)n1C` (stereo not given), the TGI with K-562 leukemia, in the test with ACHN renal, with CCRF-CEM leukemia, in the test with HCT-116 colon, in the test on SW-620 colon and in the test on EKVX NSCLC was greater than 100 µM each time. The TGI with MDA-N, in the test on A549 NSCLC, with NCI-H460 lung and in the test with SNB-19 CNS was greater than 100 µM throughout.
`OC1CCCC1C(O)(C(F)(F)F)C(F)(F)F` (stereo not given): the TGI in the test on K-562 leukemia, in the test on ACHN renal, in the test on CCRF-CEM leukemia, with HCT-116 colon, in the test with SW-620 colon and with EKVX NSCLC was greater than 100 µM throughout. Besides, the TGI with MDA-N, in the test with A549 NSCLC, in the test on NCI-H460 lung and in the test on SNB-19 CNS was greater than 100 µM in each case.
In the case of `Cc1cc(S(=O)(=O)Nc2nnc3c(C(F)(F)F)cc(Cl)cn23)c(S)cc1Cl`, the TGI in the test with K-562 leukemia, in the test on ACHN renal, in the test on CCRF-CEM leukemia, with HCT-116 colon, with SW-620 colon and with EKVX NSCLC was greater than 100 µM each time. In addition, the TGI in the test on MDA-N, in the test on A549 NSCLC, in the test on NCI-H460 lung and in the test with SNB-19 CNS was greater than 100 µM in each case.
As for `Clc1nc(-[n+]2ccc(-c3ccncc3)cc2)nc(Nc2ccccc2)c1Cl`, the TGI in the test on K-562 leukemia is greater than 100 µM; in the test with ACHN renal, greater than 100 µM; in the test with CCRF-CEM leukemia it was 90.2 µM; in the test with HCT-116 colon, greater than 100 µM; in the test with SW-620 colon, greater than 100 µM; in the test on EKVX NSCLC, greater than 100 µM. The TGI with MDA-N, with A549 NSCLC, in the test with NCI-H460 lung and in the test on SNB-19 CNS was greater than 100 µM each time.
For `CCC1(CC)C(=O)CC[C@@]2(C)C1=CC[C@H]1[C@@H]3CC[C@H](O)[C@@]3(C)CC[C@@H]12`, the TGI is 37.3 µM with K-562 leukemia; greater than 100 µM in the test with ACHN renal; 45.7 µM with CCRF-CEM leukemia; 63.8 µM in the test with HCT-116 colon; 63.1 µM with SW-620 colon; greater than 100 µM in the test with EKVX NSCLC. Also, the TGI was greater than 100 µM with MDA-N, 28.9 µM in the test on A549 NSCLC, 32.2 µM in the test with NCI-H460 lung and greater than 100 µM in the test with SNB-19 CNS.
`CCCCC[C@@H]1OCO[C@@]2(C)/C=C(C)/C=C/C(=O)O[C@H]([C@@H](C)[C@@H](O)[C@H](C)[C@@]3(O)C[C@@H](O[C@H]4C[C@@H](O)[C@H](O)[C@@H](C)O4)[C@H](C)[C@@H](C)O3)[C@@H](OC)/C=C/C=C(\C)C[C@@H]1[C@@H]2O` (stereo in doubt): the TGI in the test on K-562 leukemia turned out to be 7.54 µM; with ACHN renal, 1.33 µM; with CCRF-CEM leukemia, 0.455 µM; in the test with HCT-116 colon, 0.609 µM; in the test on SW-620 colon it was 6.67 µM; in the test on EKVX NSCLC, 3.07 µM. For the same compound, the TGI was 0.203 µM in the test with MDA-N, 0.733 µM in the test with A549 NSCLC, 5.3 µM with NCI-H460 lung and 7.78 µM in the test on SNB-19 CNS.
As for `CC(=O)O[C@H]1C#C/C=C\C#CC[C@@H]2C(=O)N(C(=O)OC(C)(C)C)[C@@H]12`, the TGI with K-562 leukemia was greater than 100 µM; in the test with ACHN renal, 28.8 µM; in the test on CCRF-CEM leukemia it was 6.77 µM; in the test on HCT-116 colon it was greater than 89.4 µM; in the test with SW-620 colon, greater than 100 µM; in the test with EKVX NSCLC, greater than 100 µM. The TGI was greater than 100 µM with MDA-N, greater than 100 µM in the test on A549 NSCLC, 38.7 µM in the test on NCI-H460 lung and 97 µM in the test with SNB-19 CNS.
`COP(=O)(OC)C(N)CCSC` (stereo not given): the TGI in the test on K-562 leukemia, with ACHN renal, in the test with CCRF-CEM leukemia, with HCT-116 colon, in the test on SW-620 colon and with EKVX NSCLC was greater than 100 µM each time. The TGI in the test with MDA-N, in the test on A549 NSCLC, with NCI-H460 lung and in the test on SNB-19 CNS was greater than 100 µM in each case.
